How the values were obtained:
NF-κB [1] = experiment: 293/NFkB-luc reporter cell assay (TNF-α induced luciferase expression); format: cell-based; conditions: 293/NFkB-luc, 293 cells, pNF-κB-luc reporter, 2 h pretreatment, 20 ng/ml TNF-α 18 h
Experimental: (§1) Two reporter cell assays were used to determine the ability of the compound of Example 10 to inhibit NF-κB driven transcription. The first assay was a 293-cell based assay with a stably integrated pNF-κB-luc reporter plasmid containing 3 NF-κB promoter elements. The second assay was a 293-cell based assay with a stably integrated pTRH1-NF-κB-dscGFP reporter containing 4 NF-κB promoter elements. Cells were treated with 0, 0.2, 1, 10, 20 and 40 μM of the compound of Example 10 for 2 hours then were induced with 20 ng/ml TNF-α for 18 hours. Following the induction, luminescence or fluorescence was quantified using a Beckman-Coulter 2300 plate reader. […] These values represent the median value generated from three independent experiments. As a control, 0.5% DMSO treated and untreated cells were compared to verify that the compound of Example 10 had no effect on the expression of luciferase or in the readout of the assay. There was a slight decrease in the output from the assay in the DMSO treated population although it was not statistically significant. As a result of the controls, the decrease in activity in the drug treated samples was compared to the DMSO control sample.

NF-κB [2] = experiment: NF-κB/293/GFP reporter cell assay (TNF-α induced GFP expression); format: cell-based; conditions: Homo sapiens, HEK293, 293 cells, pTRH1-NF-κB-dscGFP reporter, 2 h pretreatment, 20 ng/ml TNF-α 18 h; read-out: NF-KB/293/GFP EC50
Experimental: as §1

[3] = system: IL-6 release from RAW264.7 cells; experiment: LPS-stimulated IL-6 release from RAW264.7 cells (ELISA); format: cell-based, mouse; conditions: Mus musculus, RAW264.7, RAW264.7 cells, 2 h pretreatment, 1 μg/mL LPS 20-24 h; read-out: RAW 264.7 IL-6 release EC50
Experimental: RAW 264.7 cells were seeded at 4×10^4 cells per well n complete growth medium in 96 well white TC plates with clear bottoms one day prior to the assay. The next day the cells were washed once and 100 μL fresh growth media was added. Cells were pretreated with 0.5 μL from a 6 point 200× dilution series of the test compounds in DMSO for 2 hours. Following pretreatment with the drugs, the inflammatory response was induced by adding 5 μL of a 20 μg/mL solution of LPS (Sigma). The cells were incubated in the presence of the drugs and 1 μg/mL LPS for another 20-24 hours. Typically after treatment the total DMSO was […] of the culture volume and the final concentrations of the compounds were approximately: 40, 20, 10, 1, 0.2 and 0 μM depending on the MW of each compound. Modified dilution series were prepared as needed to get adequate dose response curves without changing the % DMSO. Samples were run in duplicate or triplicate and included DMSO treated control wells with and without LPS stimulation. Drugs with a known activity such as Parthenolide or DHMEQ were run as experimental controls. After 20-24 hours LPS activation, the media supernatant was collected from the cells and replaced with fresh media. The supernatant samples were cleared by centrifugation at 1,000×g for 5 minutes, transferred to fresh storage plates, and stored frozen at −30° C.
After determining the appropriate supernatant dilutions experimentally, mIL-6 levels in the supernatants were quantified using Quantikine™ mouse IL-6 immunoassay (R&D Systems) according to the manufacturer's protocol. […] diluted in Calibrator Diluent were added to 50 μL of Assay Diluent in microplate wells pre-coated with an anti-mouse IL-6 capture antibody. Controls included a calibrated positive IL-6 control sample, non-specific binding (NSB) wells containing Calibrator Diluent but no IL-6, and a recombinant mouse IL-6 standard dilution series (10-1000 pg/mL). The plates were incubated at room temperature for 2 hours with shaking and then washed 5 times with 400 μL 1× Wash Buffer. […] anti-mouse IL-6 antibody was added to each well to detect IL-6 captured on the plate. The plates were incubated at room temperature for 2 hours and then washed 5 times with 400 μL 1× Wash Buffer. Equal volumes of Color Reagents A and B were mixed and 100 μL of this HRP Substrate Solution was added to each well on the plate. The blue color was allowed to develop for 30 minutes and then the reaction was stopped using 100 μL of Stop Solution yielding a yellow color. Absorbance at 450 nm with a reference wavelength subtracted at 595 nm was recorded using a Becton-Dickinson DTX 880 Multimode Detector.
The concentration of mIL-6 in the unknown samples was determined from a curve-fit of the mIL-6 standard absorbance data and multiplying by the dilution factor. The maximum activity achieved in the absence of the inhibitor (DMSO+LPS treated wells) was arbitrarily given a value of 100%; likewise the minimum activity in the absence of the stimulant (no LPS) was assigned a value of 0%. Inhibition of the amount of mIL-6 cytokine released in the drug treated wells was calculated relative to the maximum activation in the DMSO+LPS treated control wells (ie. % inhibition=100−(drug+LPS treated)/(DMSO+LPS treated)). Dose response curves were used to determine the effective concentration to inhibit 50% of the mIL-6 cytokine released (IC50) by means of a SigmaPlot macro which fits a sigmoidal dose-response curve to the (log 10) μM concentration versus % inhibition. […] This technique yields an objective value for the IC50 provided that 50% inhibition was approached at the concentrations tested. FIG. 5 illustrates the effect of the compound of Example 10 on inhibiting IL-6 release.

p65 (RelA) = biological target: T1, p65 (RelA) (Homo sapiens, UniProt Q04206); experiment: TransAM NF-κB family DNA binding ELISA, p65; format: biochemical; conditions: binding to NF-κB consensus oligonucleotide
T1 construct: purchased Active Motif
T1 sequence (Q04206 whole entry): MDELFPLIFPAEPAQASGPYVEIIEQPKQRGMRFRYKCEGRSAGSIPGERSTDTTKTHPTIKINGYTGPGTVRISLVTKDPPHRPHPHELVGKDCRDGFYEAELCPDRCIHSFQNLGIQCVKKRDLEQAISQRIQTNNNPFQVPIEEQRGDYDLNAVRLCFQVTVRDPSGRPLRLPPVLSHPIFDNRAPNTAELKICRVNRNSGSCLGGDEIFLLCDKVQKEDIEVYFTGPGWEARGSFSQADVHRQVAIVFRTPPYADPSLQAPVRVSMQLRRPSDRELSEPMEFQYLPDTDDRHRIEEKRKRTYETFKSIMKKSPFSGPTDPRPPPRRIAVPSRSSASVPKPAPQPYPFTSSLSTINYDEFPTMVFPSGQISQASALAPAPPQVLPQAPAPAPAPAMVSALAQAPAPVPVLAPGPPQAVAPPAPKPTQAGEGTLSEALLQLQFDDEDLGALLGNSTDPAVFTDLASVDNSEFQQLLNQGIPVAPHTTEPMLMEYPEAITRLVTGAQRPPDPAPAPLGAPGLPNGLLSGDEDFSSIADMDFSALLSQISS
Experimental: The binding activity of NF-κB heterodimer or homodimer subunits from activated nuclear extracts or purified recombinant NF-κB proteins exposed to the drug compounds was evaluated using the TransAM NF-κB Family binding ELISA (Active Motif). 3-5 μg of nuclear extracts from TNFα activated Hela or Raji cells (Active Motif) or 20 ng of purified recombinant proteins (p65 and p50 from Active Motif, p52 from Santa Cruz) were incubated for 1 hour at room temperature with 20 μL drug compounds diluted in Complete Lysis buffer without DTT. Treated samples were then transferred to 30 μL Complete Binding Buffer (with DTT) in microplate wells pre-coated with the NF-κB consensus oligonucleotide. […] The plate was incubated for 1 hour at room temperature with gentle shaking and then washed 3 times with 200 μL 1× Wash Buffer. NF-κB p65, p50, p52, RelB, or c-Rel subunits bound to the plate were detected with 100 μL of the primary antibody (diluted 1:1000 in 1× Antibody Buffer) specific for that subunit. The plate was incubated for 1 hour at room temperature and then washed 3 times with 200 μL 1× Wash Buffer. Next, 100 μL of a HRP conjugated goat anti-rabbit antibody (diluted 1:1,000 in 1× Antibody Buffer) was added to each well. The plate was incubated for 1 hour at room temperature and then washed 4 times with 200 μL 1× Wash Buffer. 100 μL of room temperature Developing Solution was added to each well. The reaction was allowed to develop for 2-10 minutes until a medium dark blue color developed (depending on the subunit activity in the lot of extract or lot of recombinant protein used) and then the reaction was stopped with 100 μL Stop Solution yielding a yellow color. Absorbance was recorded using a Becton-Dickinson DTX 880 Multimode Detector at 450 nm with a reference wavelength subtracted at 620 nm. FIGS. 2, 3 and 4 illustrate the effect of Example 10 on inhibiting RelA, RelB and c-Rel binding to NF-κB sites.

SMILES	EC50 (NF-κB [1]) [µM]	EC50 (NF-κB [2]) [µM]	EC50 [3] [µM]	IC50 (p65 (RelA)) [µM]
O=C(NC1=CC(=O)C2OC2C1=O)c1c(O)ccc2ccccc12 (racemic) [Example 12, (±)-N-(2,5-dioxo-7-oxabicyclo[4.1.0]hept-3-en-3-yl)-2-hydroxy-1-naphthamide]	2.2	3.6	0.14	9.7
Cc1cc(Br)cc(C(=O)NC2=CC(=O)C3OC3C2O)c1O (racemic) [Example 13, (±)-5-bromo-2-hydroxy-N-(2-hydroxy-5-oxo-7-oxabicyclo[4.1.0]hept-3-en-3-yl)-3-methylbenzamide]	21	9.2	1.7	8.7
Cc1cc(Br)cc(C(=O)NC2=CC(=O)C3OC3C2=O)c1O (racemic) [Example 14, (±)-5-bromo-N-(2,5-dioxo-7-oxabicyclo[4.1.0]hept-3-en-3-yl)-2-hydroxy-3-methylbenzamide]	2.9	3.6	0.25	5.3
CN(C)c1ccc(C(=O)NC2=CC(=O)C3OC3C2=O)c(O)c1 (racemic) [Example 18, (±)-4-(dimethylamino)-N-(2,5-dioxo-7-oxabicyclo[4.1.0]hept-3-en-3-yl)-2-hydroxybenzamide]	2.1	3.1	0.58	26

From patent US20120046357A1, “Benzamide and Napthamide Derivatives Inhibiting Nuclear Factor-Kappa (B) - (NK-kB)” (Profectus Biosciences, Inc., priority 2009, published 2012)
